This passage reports Critical pressure and Critical temperature results from the NIST ThermoML archive (doi:10.1021/je0604380).

The conditions of the data set: Liquid; for Critical pressure: pulse heating; for Critical temperature: pulse-heating method.

Each structure is given as a SMILES string. ± gives the expanded uncertainty stated by the source.

`Oc1ccccc1` [phenol]: the Critical pressure turned out to be 5670 ± 340 kPa and the Critical temperature worked out at 695 ± 14 K.
In the case of `OCCCCc1ccccc1` [4-phenyl-1-butanol], the Critical pressure stood at 3070 ± 180 kPa and the Critical temperature came to 746 ± 14 K.
On the same counts, the results for `OCCc1ccccc1` [2-phenylethanol] are 3850 ± 240 kPa and 720 ± 14 K.
The corresponding values for `OCCCc1ccccc1` [3-phenyl-1-propanol] are 3460 ± 200 kPa and 732 ± 14 K.
